System: patients with cGVHD
Settings: Cohort 3 400 mg QD

For `CC(C)NC(=O)COc1cccc(-c2nc(Nc3ccc4[nH]ncc4c3)c3ccccc3n2)c1` [Belumosudil, 2-{3-[4-(1H-indazol-5-ylamino)-2-quinazolinyl]phenoxy}-N-(propan-2-yl) acetamide], the “Fungal infection: # Events” value was 0, the “Fungal infection: Affected/At Risk (%)” value was 0/21 (0%) and the “Gamma-glutamyltransferase increased: # Events” value was 0. For the same compound, the “Gamma-glutamyltransferase increased: Affected/At Risk (%)” value was 0/21 (0%), the “Gastric ulcer: # Events” value was 0 and the “Gastric ulcer: Affected/At Risk (%)” value was 0/21 (0%). For the same compound, the “Gastrooesophageal reflux disease: # Events” value was 2, the “Gastrooesophageal reflux disease: Affected/At Risk (%)” value was 2/21 (9.52%) and the “Generalised oedema: # Events” value was 1. The “Generalised oedema: Affected/At Risk (%)” value was 1/21 (4.76%), the “Genital infection fungal: # Events” value was 0 and the “Genital infection fungal: Affected/At Risk (%)” value was 0/21 (0%). For the same compound, the “Glaucoma: # Events” value was 0, the “Glucose urine present: # Events” value was 3 and the “Glucose urine present: Affected/At Risk (%)” value was 1/21 (4.76%). For the same compound, the “Grade ≥3 AE, No. (%)” value was 14 (67), the “Grade ≥3 ALT/AST increased, No. (%)” value was 0 and the “Grade ≥3 Anemia, No. (%)” value was 0. The “Grade ≥3 Dyspnea, No. (%)” value was 4 (19), the “Grade ≥3 Hyperglycemia, No. (%)” value was 2 (10) and the “Grade ≥3 Hypoxia, No. (%)” value was 2 (10). The “Grade ≥3 Lung infection or pneumonia, No. (%)” value was 2 (10), the “Graft versus host disease in gastrointestinal tract: # Events” value was 0 and the “Graft versus host disease in gastrointestinal tract: Affected/At Risk (%)” value was 0/21 (0%). The “Gynaecomastia: # Events” value was 0, the “Gynaecomastia: Affected/At Risk (%)” value was 0/21 (0%) and the “Haematuria: # Events” value was 2. The “Haematuria: Affected/At Risk (%)” value was 1/21 (4.76%), the “Hair growth abnormal: # Events” value was 0 and the “Hair growth abnormal: Affected/At Risk (%)” value was 0/21 (0%). For the same compound, the “Headache: # Events” value was 8, the “Headache: Affected/At Risk (%)” value was 6/21 (28.57%) and the “Hodgkin's disease recurrent: # Events” value was 0. The “Hodgkin's disease recurrent: Affected/At Risk (%)” value was 0/21 (0%), the “Hordeolum: # Events” value was 1 and the “Hordeolum: Affected/At Risk (%)” value was 1/21 (4.76%). The “Hot flush: # Events” value was 0, the “Hot flush: Affected/At Risk (%)” value was 0/21 (0%) and the “Hyperglycemia: # Events” value was 8. For the same compound, the “Hyperglycemia: Affected/At Risk (%)” value was 3/21 (14.29%), the “Hyperhidrosis: # Events” value was 1 and the “Hyperhidrosis: Affected/At Risk (%)” value was 1/21 (4.76%). For the same compound, the “Hyperkalaemia: # Events” value was 4, the “Hyperkalaemia: Affected/At Risk (%)” value was 3/21 (14.29%) and the “Hypertension: # Events” value was 6. For the same compound, the “Hypertension: Affected/At Risk (%)” value was 4/21 (19.05%), the “Hyperthyroidism: # Events” value was 1 and the “Hyperthyroidism: Affected/At Risk (%)” value was 1/21 (4.76%). The “Hypertriglyceridaemia: # Events” value was 0, the “Hypertriglyceridaemia: Affected/At Risk (%)” value was 0/21 (0%) and the “Hyperuricaemia: # Events” value was 5. For the same compound, the “Hyperuricaemia: Affected/At Risk (%)” value was 3/21 (14.29%), the “Hypoaesthesia: # Events” value was 1 and the “Hypoaesthesia: Affected/At Risk (%)” value was 1/21 (4.76%). For the same compound, the “Hypocalcaemia: # Events” value was 1, the “Hypocalcaemia: Affected/At Risk (%)” value was 1/21 (4.76%) and the “Hypogonadism: # Events” value was 0. The “Hypogonadism: Affected/At Risk (%)” value was 0/21 (0%), the “Hypokalaemia: # Events” value was 0 and the “Hypokalaemia: Affected/At Risk (%)” value was 0/21 (0%). For the same compound, the “Hypomagnesaemia: # Events” value was 1, the “Hypomagnesaemia: Affected/At Risk (%)” value was 1/21 (4.76%) and the “Hyponatraemia: # Events” value was 2. The “Hyponatraemia: Affected/At Risk (%)” value was 2/21 (9.52%), the “Hypophosphataemia: # Events” value was 1 and the “Hypophosphataemia: Affected/At Risk (%)” value was 1/21 (4.76%). The “Hypothermia: # Events” value was 0, the “Hypothermia: Affected/At Risk (%)” value was 0/21 (0%) and the “Hypothyroidism: # Events” value was 4. For the same compound, the “Hypothyroidism: Affected/At Risk (%)” value was 3/21 (14.29%), the “Hypoxia: # Events” value was 3 and the “Hypoxia: Affected/At Risk (%)” value was 3/21 (14.29%). For the same compound, the “Impaired healing: # Events” value was 0, the “Impaired healing: Affected/At Risk (%)” value was 0/21 (0%) and the “Influenza like illness: # Events” value was 0. For the same compound, the “Influenza like illness: Affected/At Risk (%)” value was 0/21 (0%), the “Influenza: # Events” value was 2 and the “Influenza: Affected/At Risk (%)” value was 2/21 (9.52%). The “Insomnia: # Events” value was 3, the “Insomnia: Affected/At Risk (%)” value was 3/21 (14.29%) and the “Irritability: # Events” value was 0. For the same compound, the “Irritability: Affected/At Risk (%)” value was 0/21 (0%), the “Joint range of motion decreased: # Events” value was 1 and the “Joint range of motion decreased: Affected/At Risk (%)” value was 1/21 (4.76%). The “Lacrimation increased: # Events” value was 0, the “Lacrimation increased: Affected/At Risk (%)” value was 0/21 (0%) and the “Leukaemia recurrent: # Events” value was 0. The “Leukaemia recurrent: Affected/At Risk (%)” value was 0/21 (0%), the “Leukocytosis: # Events” value was 1 and the “Leukocytosis: Affected/At Risk (%)” value was 1/21 (4.76%). The “Ligament sprain: # Events” value was 0, the “Ligament sprain: Affected/At Risk (%)” value was 0/21 (0%) and the “Limb injury: # Events” value was 1. The “Limb injury: Affected/At Risk (%)” value was 1/21 (4.76%), the “Macular degeneration: # Events” value was 0 and the “Macular degeneration: Affected/At Risk (%)” value was 0/21 (0%). For the same compound, the “Migraine: # Events” value was 0, the “Migraine: Affected/At Risk (%)” value was 0/21 (0%) and the “Muscle spasms: # Events” value was 6. The “Muscle spasms: Affected/At Risk (%)” value was 6/21 (28.57%), the “Muscle spasticity: # Events” value was 1 and the “Muscle spasticity: Affected/At Risk (%)” value was 1/21 (4.76%). The “Muscular weakness: # Events” value was 2, the “Muscular weakness: Affected/At Risk (%)” value was 2/21 (9.52%) and the “Musculoskeletal chest pain: # Events” value was 1. For the same compound, the “Musculoskeletal chest pain: Affected/At Risk (%)” value was 1/21 (4.76%), the “Myalgia: # Events” value was 3 and the “Myalgia: Affected/At Risk (%)” value was 3/21 (14.29%). For the same compound, the “Nail disorder: # Events” value was 0, the “Nail disorder: Affected/At Risk (%)” value was 0/21 (0%) and the “Nasal congestion: # Events” value was 1. For the same compound, the “Nasal congestion: Affected/At Risk (%)” value was 1/21 (4.76%), the “Nausea: # Events” value was 12 and the “Nausea: Affected/At Risk (%)” value was 9/21 (42.86%). For the same compound, the “Neck pain: # Events” value was 0, the “Neck pain: Affected/At Risk (%)” value was 0/21 (0%) and the “Nephrotic syndrome: # Events” value was 0. For the same compound, the “Nephrotic syndrome: Affected/At Risk (%)” value was 0/21 (0%), the “Neuropathy peripheral: # Events” value was 2 and the “Neuropathy peripheral: Affected/At Risk (%)” value was 1/21 (4.76%). The “Neutrophil count decreased: # Events” value was 1, the “Neutrophil count decreased: Affected/At Risk (%)” value was 1/21 (4.76%) and the “Nocturia: # Events” value was 0. The “Nocturia: Affected/At Risk (%)” value was 0/21 (0%), the “Non-cardiac chest pain: # Events” value was 1 and the “Non-cardiac chest pain: Affected/At Risk (%)” value was 1/21 (4.76%). The “Obesity: # Events” value was 0, the “Obesity: Affected/At Risk (%)” value was 0/21 (0%) and the “Oedema peripheral: # Events” value was 6. The “Oedema peripheral: Affected/At Risk (%)” value was 6/21 (28.57%), the “Oedema: # Events” value was 0 and the “Oedema: Affected/At Risk (%)” value was 0/21 (0%). The “Oesophageal ulcer: # Events” value was 0, the “Oesophageal ulcer: Affected/At Risk (%)” value was 0/21 (0%) and the “Oral candidiasis: # Events” value was 0. For the same compound, the “Oral candidiasis: Affected/At Risk (%)” value was 0/21 (0%), the “Oropharyngeal pain: # Events” value was 1 and the “Oropharyngeal pain: Affected/At Risk (%)” value was 1/21 (4.76%). The “Orthopnoea: # Events” value was 0, the “Orthopnoea: Affected/At Risk (%)” value was 0/21 (0%) and the “Osteonecrosis: # Events” value was 0. For the same compound, the “Osteonecrosis: Affected/At Risk (%)” value was 0/21 (0%), the “Osteopenia: # Events” value was 0 and the “Osteopenia: Affected/At Risk (%)” value was 0/21 (0%). The “Osteoporosis: # Events” value was 0, the “Osteoporosis: Affected/At Risk (%)” value was 0/21 (0%) and the “Overdose: # Events” value was 0. For the same compound, the “Overdose: Affected/At Risk (%)” value was 0/21 (0%), the “Pain in extremity: # Events” value was 5 and the “Pain in extremity: Affected/At Risk (%)” value was 4/21 (19.05%). For the same compound, the “Pain: # Events” value was 1, the “Pain: Affected/At Risk (%)” value was 1/21 (4.76%) and the “Palpitations: # Events” value was 1. The “Palpitations: Affected/At Risk (%)” value was 1/21 (4.76%), the “Paraesthesia: # Events” value was 1 and the “Paraesthesia: Affected/At Risk (%)” value was 1/21 (4.76%). For the same compound, the “Pericardial effusion: # Events” value was 0, the “Pericardial effusion: Affected/At Risk (%)” value was 0/21 (0%) and the “Peripheral coldness: # Events” value was 0. For the same compound, the “Peripheral coldness: Affected/At Risk (%)” value was 0/21 (0%), the “Peripheral sensory neuropathy: # Events” value was 0 and the “Peripheral sensory neuropathy: Affected/At Risk (%)” value was 0/21 (0%). For the same compound, the “Phlebitis: # Events” value was 0, the “Phlebitis: Affected/At Risk (%)” value was 0/21 (0%) and the “Photophobia: # Events” value was 2. For the same compound, the “Photophobia: Affected/At Risk (%)” value was 2/21 (9.52%), the “Platelet count decreased: # Events” value was 0 and the “Platelet count decreased: Affected/At Risk (%)” value was 0/21 (0%). The “Pleural effusion: # Events” value was 1.
